Assay results taken from ChEMBL document CHEMBL3792325, “Two novel phenanthraquinones with anti-cancer activity isolated from Bletilla striata” (Bioorg Med Chem Lett, 2016).
Values after ≈ are worked out from the molar mass of the structure shown.

Key:
[1] = tested on: A549; assay: Effect on cell cycle distribution in human A549 cells assessed as accumulation at G2 phase at 20 ug/ml after 24 hrs by propidium iodide staining based flow cytometry method (reference value: 8%); type: functional
[2] = tested on: A549; assay: Induction of ROS generation in human A549 cells at 20 ug/ml after 24 hrs by FACS-flow cytometry method (reference value: 20.51); type: functional
[3] = tested on: A549; assay: Antiproliferative activity against human A549 cells assessed as growth inhibition after 48 hrs by MTT assay; type: functional, cell-based; settings: A549, 48 h
[4] = tested on: A549; assay: Effect on cell cycle distribution in human A549 cells assessed as accumulation at G1 phase at 20 ug/ml after 24 hrs by propidium iodide staining based flow cytometry method (reference value: 53.24%); type: functional
[5] = tested on: A549; assay: Induction of ROS generation in human A549 cells assessed as fold change at 20 ug/ml after 24 hrs by FACS-flow cytometry method relative to control; type: functional
[6] = tested on: A549; assay: Effect on cell cycle distribution in human A549 cells assessed as accumulation at S phase at 20 ug/ml after 24 hrs by propidium iodide staining based flow cytometry method (reference value: 38.76%); type: functional
[7] = tested on: HT-29; assay: Antiproliferative activity against human HT-29 cells assessed as growth inhibition after 48 hrs by MTT assay; type: functional, cell-based; settings: HT-29, 48 h
[8] = tested on: HUVEC; assay: Antiproliferative activity against human HUVEC cells assessed as growth inhibition after 48 hrs by MTT assay; type: cell-based
[9] = tested on: MCF7; assay: Antiproliferative activity against human MCF7 cells assessed as growth inhibition after 48 hrs by MTT assay; type: functional, cell-based; settings: MCF7, 48 h
[10] = tested on: A549; assay: Effect on cell cycle distribution in human A549 cells assessed as accumulation at […] phase at 20 ug/ml after 24 hrs by propidium iodide staining based flow cytometry method (reference value: 1.96%); type: functional

Row | Structure (SMILES) | Activity [1] | Flu intensity [2] | IC50 [3] | Activity [4] | fold change (FC) [5] | Activity [6] | IC50 [7] | IC50 [8] | IC50 [9] | Activity [10]
1 | COC1=Cc2ccc3cc(O)ccc3c2C(=O)C1=O | 6.47% | 136 | 19.7 µg/mL (≈ 77.6 µM) | 63.22% | 6 | 30.31% | 25 µg/mL (≈ 98.4 µM) | 48.3 µg/mL (≈ 190 µM) | 18.5 µg/mL (≈ 72.7 µM) | 2%
2 | COc1cc(C(=O)O)ccc1O [VANILLIC ACID] |  |  | > 100 µg/mL |  |  |  | > 100 µg/mL | > 100 µg/mL | > 100 µg/mL | 
3 | COC1=C(c2c(O)ccc3c2ccc2cc(OC)c(O)c(OC)c23)c2ccc3cc(O)ccc3c2C(=O)C1=O | 8% | 256.68 | 22.6 µg/mL (≈ 43.3 µM) | 69.4% | 10 | 22.6% | 22.7 µg/mL (≈ 43.4 µM) | 33.5 µg/mL (≈ 64.1 µM) | 12.6 µg/mL (≈ 24.2 µM) | 1.95%
4 | COc1cc(O)c2c(c1)C(=O)c1cc(C)cc(O)c1C2=O [PHYSCION] |  |  | > 100 µg/mL |  |  |  | > 100 µg/mL | > 100 µg/mL | > 100 µg/mL | 
5 | COc1cc2ccc3c(OC)c(O)ccc3c2c(OC)c1O |  |  | > 100 µg/mL |  |  |  | > 100 µg/mL | > 100 µg/mL | > 100 µg/mL | 
6 | Cc1ccc2c(c1)C(=O)c1ccccc1C2=O [TECTOQUINONE] |  |  | > 100 µg/mL |  |  |  | > 100 µg/mL | > 100 µg/mL | > 100 µg/mL | 
